Laboratory results taken from patent publication US8617528B2, “Compositions and methods for stabilizing ingredients using 2,4-pentanedione compounds” (Sytheon Ltd., priority 2010, dated 2013).

Columns and labels:
[1] = Photostability of sunscreen formulation under sun simulator; conditions: 2% stabilizer in sunscreen with 2% butyl methoxydibenzoylmethane
Procedure: (§1) Samples of each solution were prepared as ultrathin films between two quartz plates so as to obtain a minimum of 90% light transmission over the entire spectrum range of non absorbing chromophores. For example, ingredients which absorb only in the UV range were tested in formulation to obtain a minimum of 90% light transmission over the visible range. Each sample was then irradiated under sun simulator (754 W/m^2, 2 MED/h, UV dose from 20 to 100 Joules/cm^2) for various durations and light absorption spectra recorded for each sample at given times. The maximal absorption band λmax of each solution was determined before and after irradiation. The amount of the photosensitive materials remaining in solution after irradiation was calculated as the ratio of their two maximal absorptions.
Three samples of this were taken for photostability testing according to the method of Example 6 above. The first sample, the Control, was not modified whereas the two remaining samples were modified by incorporating therein 2% of the compound of Example 1, HSS, and 4% octocrylene, respectively. The three formulations were prepared by first preparing each of Phase A1 and A2 and then dispersing Phase A2 in Phase A1 with agitation and heating to 75 C. Phase B was prepared and heated to 75° C. Phase B is then combined with the Phase A mixture with continuous stirring. The combination was subsequently homogenized for 2-3 minutes, and the batch cooled to 45° C. Phases C and were separately prepared and then mixed with the cooled batch until uniform.
As with Example 6, each was exposed to irradiation for various durations and the photostability tested. As evidenced from the results shown in Table 7, the stabilizer compound of the present invention performed markedly better than that of the conventional photostabilizer in the formulated product.

[2] = Photostabilization of water-soluble dyes under solar simulated light; conditions: 0.05% stabilizer, FD&C Yellow No 5 or Red No 40, solar simulated light ~40 hours
Procedure: The stabilizer compound Synoxyl™ HSS according to Example 1 was added to the two dye compositions of Table 9, one containing Yellow No 5 and the other Red No 40, in order to evaluate its ability to reduce the extent of color fading resulting from their exposure to solar simulated light. In both formulations without the Synoxyl™ HSS, visible and marked color fading was noted following just 2 hours of light exposure.

[3] = Photostabilization of avobenzone in ethanol test solution under sun simulator
Procedure: A comparative photostabilization study was conducted comparing the photostabilization efficacy of the compound of Example 1, HSS, and the compound of Example 3 (Compound 3) with Octocrylene and Oxynex® ST in the stabilization of avobenzone. Samples for evaluation were prepared as follows:
Solutions in ethanol are prepared at respective concentrations of photosensitive materials and photostabilizer (typically 1:1 to 1:5 weight ratio). A base test solution of 3% Avobenzone+5% Octyl salicylate +10% Homoslate in Ethanol (the “Test Solution”) was made. Seven additional solutions were prepared by adding 2% Synoxyl™ HSS, 4% Synoxyl™ HSS, 4% Compound 3, 2% Octocrylene, 4% Octocrylene, 2% Oxynex® ST, and 2% dehydrozingerone methyl ether, respectively, to seven aliquots of the Test Solution.
as §1

[4] = Hydrolytic stability of HSS in water at pH 7, 8, 9 (GC purity of recovered solid); format: physicochemical
Procedure: A series of hydrolytic stability tests were conducted on the compound of Example 1, HSS, as follows
pH7: 2.5 g of samples of HSS were placed in 100 ml round bottom flasks and 50 ml of double distilled water (pH 7) added to each. […] Thereafter each sample was filtered and the solids dried.
pH 8: 2.5 g of samples of HSS were placed in 100 ml round bottom flasks and 50 ml of double distilled water which had been adjusted to pH 8 using 0.01N NaOH solution added to each. […] Thereafter each sample was filtered and the solids dried.
pH 9: 2.5 g of samples of HSS were placed in 100 ml round bottom flasks and 50 ml of double distilled water which had been adjusted to pH 9 using 0.1N NaOH solution added to each. […] Thereafter each sample was filtered and the solids dried.
Each dried sample was analyzed by gas chromatography using an HP-5, 15 m, 0.53 mm id, capillary column with following set-up and test parameters: • Injection temperature: 250° C. • Oven temp: 50° C. (2 min), 10° C. to 260° C. (20 min) • Detector: FID • Detector temp: 260° C. • Carrier gas: Nitrogen • Column flow: 3.0 ml/min • Split ratio: 5:1 • Injection Volume: 1 micro liter • Sample concentration: 100 mg/ml in Methanol
The initial purity of the HSS used to make Samples A through F was 98.9% as determined by the aforementioned GC procedure.

COc1cc(C=C(C(C)=O)C(C)=O)cc(OC)c1OC [HSS, 3-(3,4,5-trimethoxybenzylidene)-2,4-pentanedione]
photostability of sunscreen formulation (% remaining) ([1]; UV dose 0 Joules/cm^2): 100%
photostability of sunscreen formulation (% remaining) ([1]; UV dose 20 Joules/cm^2): 96%
photostability of sunscreen formulation (% remaining) ([1]; UV dose 40 Joules/cm^2): 92%
photostability of sunscreen formulation (% remaining) ([1]; UV dose 60 Joules/cm^2): 88%
color fading of dye formulation [2]: failed to manifest color fading
% remaining ([3]; 2% stabilizer in Test Solution (3% Avobenzone), UV dose 0 Joules/cm^2): 100%
% remaining ([3]; 2% stabilizer in Test Solution (3% Avobenzone), UV dose 20 Joules/cm^2): 96%
% remaining ([3]; 2% stabilizer in Test Solution (3% Avobenzone), UV dose 40 Joules/cm^2): 90%
% remaining ([3]; 2% stabilizer in Test Solution (3% Avobenzone), UV dose 60 Joules/cm^2): 84%
% remaining ([3]; 2% stabilizer in Test Solution (3% Avobenzone), UV dose 80 Joules/cm^2): 77%
% remaining ([3]; 2% stabilizer in Test Solution (3% Avobenzone), UV dose 100 Joules/cm^2): 70%
% remaining ([3]; 4% stabilizer in Test Solution (3% Avobenzone), UV dose 0 Joules/cm^2): 100%
% remaining ([3]; 4% stabilizer in Test Solution (3% Avobenzone), UV dose 20 Joules/cm^2): 96%
% remaining ([3]; 4% stabilizer in Test Solution (3% Avobenzone), UV dose 40 Joules/cm^2): 90%
% remaining ([3]; 4% stabilizer in Test Solution (3% Avobenzone), UV dose 60 Joules/cm^2): 84%
% remaining ([3]; 4% stabilizer in Test Solution (3% Avobenzone), UV dose 80 Joules/cm^2): 80%
% remaining ([3]; 4% stabilizer in Test Solution (3% Avobenzone), UV dose 100 Joules/cm^2): 76%
hydrolytic stability ([4]; pH 7, 8, and 9 at 40° C. and at 60° C. for at least 8 hrs): stable
GC purity (Area %) ([4]; pH 7, 40° C., 4 h): 98.9 Area %
GC purity (Area %) ([4]; pH 7, 40° C., 8 h): 99.1 Area %
GC purity (Area %) ([4]; pH 7, 60° C., 4 h): 98.6 Area %
GC purity (Area %) ([4]; pH 7, 60° C., 8 h): 99.0 Area %
GC purity (Area %) ([4]; pH 7, RT (~27° C.), 4 h): 98.8 Area %
GC purity (Area %) ([4]; pH 7, RT (~27° C.), 8 h): 99.0 Area %
GC purity (Area %) ([4]; pH 8, 40° C., 4 h): 98.9 Area %
GC purity (Area %) ([4]; pH 8, 40° C., 8 h): 99.1 Area %
GC purity (Area %) ([4]; pH 8, 60° C., 4 h): 99.2 Area %
GC purity (Area %) ([4]; pH 8, 60° C., 8 h): 99.0 Area %
GC purity (Area %) ([4]; pH 8, RT (~27° C.), 4 h): 98.7 Area %
GC purity (Area %) ([4]; pH 8, RT (~27° C.), 8 h): 99.2 Area %
GC purity (Area %) ([4]; pH 9, 40° C., 4 h): 99.0 Area %
GC purity (Area %) ([4]; pH 9, 40° C., 8 h): 98.9 Area %
GC purity (Area %) ([4]; pH 9, 60° C., 4 h): 99.1 Area %
GC purity (Area %) ([4]; pH 9, 60° C., 8 h): 98.8 Area %
GC purity (Area %) ([4]; pH 9, RT (~27° C.), 4 h): 98.8 Area %
GC purity (Area %) ([4]; pH 9, RT (~27° C.), 8 h): 98.8 Area %
